This note sets out measurements from patent publication US9802918B2, “Pyridineamine compounds useful as Pim kinase inhibitors” (Incyte Corporation, priority 2015, dated 2017).

What all share (format): biochemical
The target of one test is Pim-1 (Homo sapiens (Human), UniProt P11309). Nature of the test: Pim-1 kinase assay. Conditions: 1 mM ATP; read-out: Pim1 IC50. The procedure:
Supplementation of the STOP buffer with beads and stopping the reactions were done under reduced light. Prior to the stopping reactions STOP buffer with beads was preincubated for 1 h in the dark at room temperature. After stopping the reactions, plates were incubated for 1 h in the dark at room temperature before reading on a PHERAstar FS plate reader (BMG Labtech) under reduced light.

In another test the target is Pim-2 (Homo sapiens (Human), UniProt Q9P1W9). The experiment in a line: Pim-2 kinase assay. Conditions: 1 mM ATP; read-out: Pim2 IC50. In a few lines:
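Pim-2 (1 nM) with fluorescein-CREBtide ([…]) and 1 mM ATP in Tris pH 7.5, MgCl2, DTT buffer, 2 h at 25 °C. Stopped with EDTA plus Tb-anti-CREB pSer133 antibody; phosphorylation read by TR-FRET after 30 min.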

The target of a further test is Pim-3 (Homo sapiens (Human), UniProt Q86V86). Nature of the test: Pim-3 kinase assay. Conditions: 1 mM ATP; read-out: Pim3 IC50. The procedure, abridged:
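Human Pim-3 at 1.25 pM phosphorylated […] biotin-BAD peptide with 1 mM ATP for 1 h at 25° C, in pH 7.5 Tris buffer with 5 mM MgCl2 and 5 mM DTT. Reactions were stopped with EDTA buffer containing phospho-Bad (Ser112) antibody and AlphaScreen donor/acceptor beads. Plates were read after 1 h dark incubation at room temperature.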

Chain of Pim-2 (Q9P1W9 whole entry): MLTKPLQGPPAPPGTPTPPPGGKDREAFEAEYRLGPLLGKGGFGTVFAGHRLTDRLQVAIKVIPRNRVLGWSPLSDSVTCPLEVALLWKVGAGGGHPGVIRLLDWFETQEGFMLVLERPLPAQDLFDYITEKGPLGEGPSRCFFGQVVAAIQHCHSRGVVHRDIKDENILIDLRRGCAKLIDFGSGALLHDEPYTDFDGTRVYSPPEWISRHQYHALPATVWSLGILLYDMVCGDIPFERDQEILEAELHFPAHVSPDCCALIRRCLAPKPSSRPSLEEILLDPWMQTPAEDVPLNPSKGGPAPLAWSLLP
Chain of Pim-1 (P11309 whole entry): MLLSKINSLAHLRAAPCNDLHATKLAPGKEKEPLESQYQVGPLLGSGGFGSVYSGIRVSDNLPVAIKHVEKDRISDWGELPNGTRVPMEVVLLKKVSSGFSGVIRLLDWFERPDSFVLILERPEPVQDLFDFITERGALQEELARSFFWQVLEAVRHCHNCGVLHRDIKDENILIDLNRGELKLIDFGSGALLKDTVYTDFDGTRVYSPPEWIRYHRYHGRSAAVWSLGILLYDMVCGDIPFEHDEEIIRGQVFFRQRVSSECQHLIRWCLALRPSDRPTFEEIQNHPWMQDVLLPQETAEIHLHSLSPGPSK

With `C[C@@H]1C[C@H](N)CN(c2ccncc2NCc2ccc(F)c(-c3ccc4c(c3)NC(=O)C4)n2)C1` [Example 86, 6-{6-[({4-[(3S,5R)-3-Amino-5-methylpiperidin-1-yl]pyridin-3-yl}amino)methyl]-3-fluoropyridin-2-yl}-1,3-dihydro-2H-indol-2-one], the IC50 is less than 10 nM at Pim-1, 100 to 1000 nM on Pim-2 and not above 10 nM on Pim-3.
As for `C[C@@H]1C[C@H](N)CN(c2ccncc2NCc2ccc(F)c(-c3c(F)cccc3F)c2)C1` [Example 25, 4-[(3S,5R)-3-Amino-5-methylpiperidin-1-yl]-N-[(2′,6,6′-trifluorobiphenyl-3-yl)methyl]pyridin-3-amine], the half-maximal inhibitory concentration (IC50) was less than 10 nM on Pim-1, 100 to 1000 nM at Pim-2 and not above 10 nM on Pim-3.
`C[C@H]1CN(c2c(NCc3ccc(F)c(-c4c(F)cccc4F)n3)cnc3c2CCO3)C[C@@H](N)[C@@H]1O` [Example 88, (3R,4R,5S)-3-Amino-1-[5-({[6-(2,6-difluorophenyl)-5-fluoropyridin-2-yl]methyl}amino)-2,3-dihydrofuro[2,3-b]pyridin-4-yl]-5-methylpiperidin-4-ol]: the half-inhibitory concentration (IC50) at Pim-1 is less than 10 nM; at Pim-2 it was 1000 to 10000 nM; on Pim-3, not above 10 nM.
For the compound `CC(Nc1cnccc1N1C[C@H](C)C[C@H](N)C1)c1ccc(F)c(-c2c(F)cccc2F)n1` (stereo partly drawn) [Example 111, 4-[(3S,5R)-3-Amino-5-methylpiperidin-1-yl]-N-{1-[6-(2,6-difluorophenyl)-5-fluoropyridin-2-yl]ethyl}pyridin-3-amine], the values for the IC50 at Pim-1, on Pim-2 and on Pim-3 were less than 10 nM, not above 100 nM and not above 10 nM, respectively.
As to `C[C@H]1CN(c2ccncc2NCc2ccc(F)c(-c3c(F)cc(CN4CC[C@@H](C#N)C4)cc3F)n2)C[C@@H](N)[C@@H]1O` [Example 44, (R)-1-(4-(6-((4-((3R,4R,5S)-3-Amino-4-hydroxy-5-methylpiperidin-1-yl)pyridin-3-ylamino)methyl)-3-fluoropyridin-2-yl)-3,5-difluorobenzyl)pyrrolidine-3-carbonitrile], the half-inhibitory concentration (IC50) on Pim-1 is less than 10 nM; at Pim-2, not above 100 nM; on Pim-3 it was not above 10 nM.
As for `C[C@@H]1C[C@H](N)CN(c2ccncc2NCc2ccc(F)c(-c3ccccc3F)n2)C1` [Example 23, 4-((3S,5R)-3-Amino-5-methylpiperidin-1-yl)-N-((5-fluoro-6-(2-fluorophenyl)pyridin-2-yl)methyl)pyridin-3-amine], the half-inhibitory concentration (IC50) at Pim-1 is less than 10 nM; on Pim-2 it was 100 to 1000 nM; on Pim-3 it was not above 10 nM.
The corresponding values for `C[C@H]1CN(c2ccncc2NCc2ccc(F)c(-c3c(F)cc(CN4CC[C@@H](O)C4)cc3F)n2)C[C@@H](N)[C@@H]1O` [Example 42, (3R,4R,5S)-3-Amino-1-(3-(((6-(2,6-difluoro-4-(((R)-3-hydroxypyrrolidin-1-yl)methyl)phenyl)-5-fluoropyridin-2-yl)methyl)amino)pyridin-4-yl)-5-methylpiperidin-4-ol] are less than 10 nM, not above 100 nM and not above 10 nM.
The like results for `C[C@H]1CN(c2ccncc2NCc2ccc(F)c(-c3c(F)cc(CN4CC[C@H](O)C4)cc3F)n2)C[C@@H](N)[C@@H]1O` [Example 43, (3R,4R,5S)-3-Amino-1-(3-(((6-(2,6-difluoro-4-(((S)-3-hydroxypyrrolidin-1-yl)methyl)phenyl)-5-fluoropyridin-2-yl)methyl)amino)pyridin-4-yl)-5-methylpiperidin-4-ol] were, in that order, less than 10 nM, not above 100 nM and not above 10 nM.
Consider `C[C@@H]1C[C@H](N)CN(c2ccncc2NCc2ccc(F)c(-c3c(F)cc(O[C@@H]4CCOC4)cc3F)n2)C1` [Example 74, 4-[(3S,5R)-3-Amino-5-methylpiperidin-1-yl]-N-[(6-{2,6-difluoro-4-[(3R)-tetrahydrofuran-3-yloxy]phenyl}-5-fluoropyridin-2-yl)methyl]pyridin-3-amine], for which the values for the concentration for half-maximal inhibition (IC50) on Pim-1, at Pim-2 and on Pim-3 were less than 10 nM, not above 100 nM and not above 10 nM, respectively.
For `C[C@@H]1C[C@H](N)CN(c2ccncc2NCc2ccc(F)c(-c3c(F)cc(C4(O)CCOCC4)cc3F)n2)C1` [Example 6, 4-(4-(6-((4-((3S,5R)-3-Amino-5-methylpiperidin-1-yl)pyridin-3-ylamino)methyl)-3-fluoropyridin-2-yl)-3,5-difluorophenyl)tetrahydro-2H-pyran-4-ol], the results for the IC50 on Pim-1, at Pim-2 and at Pim-3 were less than 10 nM, not above 100 nM and not above 10 nM, respectively.

In general, IC50 refers to the concentration needed to halve the response being measured.
